Assays:
Type in all cases: in vivo, mouse
NSGW41 H-Mice [1] = assay: E2 administration in drinking water, tolerability; conditions: 1 μM estradiol or above, drinking water ad libitum
Protocol: (§1) E2 Administration. NSGW41 H-Mice were given drinking water ad libitum containing 1 μM estradiol.

NSGW41 H-Mice [2] = assay: T-independent antibody response to DNP-CpG injection, E2 water vs plain water; conditions: DNP-CpG i.p.
Source text: While NP16-CGG evaluates the T cell-dependent response, the NSGW41 H-Mice immune system's ability to generate a T cell-independent antibody response was investigated. To do so, 16 mice NSGW41 H-Mice were segregated amongst the E2 and plain water groups and injected with Haptenated TLR9 ligand, DNP-CpG IP. […] Thus, NSGW41 H-Mice receiving E2 treatment can mount a mature antibody response to T-dependent and T-independent antigens complete with class-switched, high affinity antibody production and generation of both plasma and memory B cells.
(§2) Immunizations. NSGW41 H-Mice were injected intraperitoneally with 4-hydroxy-3-nitrophenylacetlyl (NP) conjugated to CGG (NP-CGG) (average: 16 NP molecule conjugated with one CGG molecule; Biosearch; 100 μg) in PBS (100 μl) with Alum (100 μl), or 2,4-Dinitrophenyl conjugated to CpG (DNP-CpG) (1 DNP molecule conjugated with one CpG molecule; Eurofins Genomics; 25 μg) in PBS (100 μl) without adjuvant. Sera were collected before injection and at specified time points after injection.
as §1
(§3) Detection of antibodies. Titers of IgM, IgD, IgG and IgA from in vitro culture supernatants of stimulated human and H-Mice B cells or titers of circulating and/or NP-binding/DNP-binding IgM, IgG, and IgA were measured using specific ELISAs. IgE were detected by sandwich ELISAs, using plates coated with anti-human IgE mAb. Serial two-fold diluted serum samples in PBS-(0.05%) Tween 20 (PBS-Tween 20) were added to the plates and incubated for 2 h at 23° C. After washing with PBS-Tween 20, biotin-detection antibody was added. After a final washing, IgE antibodies were detected using streptavidin-horseradish peroxidase. Antigen specific antibody titers are expressed as relative units (RU), defined as the dilution factor needed to reach 50% saturation binding, as calculated using GraphPad Prism® software (GraphPad).
(§4) Flow cytometry. Total B cells and PBMCs were subject to flow cytometry for pre-and-post isolation phenotypic analysis using the following surface markers and fluorophores: PEcy7-anti-human-CD19 (clone H1B19; Biolegend), PE-anti-human-CD27 (clone M-T271; Biolegend), BV421-anti-human-IgD (clone HB-7; Biolegend), FITC-anti-human-IgG (clone G18-145; BD Pharmingen), APC-anti-human-IgA (clone IS11-8E10; Miltenyi Biotec) and APC-Cy7-anti-IgM (clone MHM-88, Biolegend) and run on a BD LSRII (BD Biosciences) with the FACSDiva software (BD Biosciences). Data were analyzed using FlowJo software (FlowJo LLC).

NSGW41 H-Mice [3] = assay: T-dependent antibody response to NP16-CGG immunization, E2 water vs plain water
Source text: To address the antibody response within NSGW41 H-Mice, 16 NSGW41 H-Mice were segregated into two groups of 8 mice each. One group was fed water containing estrogen (NSGW41 H-Mice) and the other plain water (huNSG^W41), each of them were then i.p. injected with NP16-CGG and Alum. The NSGW41 H-Mice were compared to Jackson Labs CD34^+ humanized mice (Jax CD34^+). […] However, the Jax CD34^+ had dramatically lower titers, correlating with reduced human reconstitution. […] (FIG. 3B).
E2 promotes myeloid lineage differentiation and B2 proliferation. Since estrogen administration had such a dynamic impact on the maturation of antibody response within NSGW41 H-Mice, the cellular composition and lymphoid architecture. B1/B2 cell ratios were compared across HIS platforms following immunization with NP-CGG. […] To investigate the formation of lymphoid follicles and germinal center structures, Jax CD34^+, huNSG, and NSGW41 H-Mice spleens were extracted 10 days post-immunization. […] These findings are supported by IHC staining of huCD20, huCD3 and huKI67 showing germinal center structures in NSGW41 H-Mice (FIG. 5D).
as §2, §1, §3, §4

[4] = NP16-CGG and alum i.p., E2-water vs plain water

C[C@]12CC[C@@H]3c4ccc(O)cc4CC[C@H]3[C@@H]1CC[C@@H]2O [E2, estradiol]
Adverse effects of drinking water containing estradiol (NSGW41 H-Mice [1]): no adverse effects | Class-switched IgG and IgA antibody production (NSGW41 H-Mice [2]): dynamically potentiated | DNP4-binding IgM, IgG and IgA titers (NSGW41 H-Mice [2]): significantly increased | Numbers of IgG+ and IgA+ B cells, splenic IgD-CD27+ memory B cells and bone marrow CD27+CD38+ plasmablasts/plasma cells (NSGW41 H-Mice [2]): increased numbers | Total IgM production (NSGW41 H-Mice [2]): comparable | Class-switched IgG, IgG1-4, IgA and IgE production (NSGW41 H-Mice [3]; [4]): drastically increased | NP7-binding IgM and IgG antibody titers (NSGW41 H-Mice [3]; [4]): significantly greater | Number of spleen IgG and IgA class-switched effector, IgD-CD27+ memory B cells and bone marrow CD27+CD38+ plasmablasts/plasma cells (NSGW41 H-Mice [3]; [4]): increased number | IgM serum titers (NSGW41 H-Mice [3]; NP16-CGG and alum i.p., estrogen water (NSGW41 H-Mice) vs plain water (huNSGW41)): comparable | Germinal center B cells (NSGW41 H-Mice [3]; lymph nodes, 10 days post-immunization with NP-CGG, estrogen pre-conditioned vs untreated): two-fold increase
